Measurements as given in patent US20030008857A1, “Photodynamic therapy (PDT) in combination with factors that bind cell surface apoptosis-inducing receptors” (priority 1999, published 2003).
“Also recorded” adds a separate entry of the source.

Experiments:
Format in all cases: cell-based, human
[1] = system: caspase-3, -6, -8 and -9 and PARP; experiment: Western immunoblot of caspase processing and PARP cleavage in Jurkat cells
Experimental: (§1) The human Jurkat T cell line containing a neomycin resistance gene was obtained from Dr. Charles Rudin (University of Chicago). Cells were maintained in RPMI 1640 medium containing 10% heat-inactivated fetal calf serum (FCS) with penicillin (100 U/mL), streptomycin (100 μg/mL), 20 mM HEPES, 2 mM L-glutamine and G418 (1 μg/ml) purchased from Gibco BRL (Burlington, Ontario) in a CO2 incubator at 37° C. To elicit apoptosis with PDT, Jurkat cells were incubated with different amounts of liposomally formulated benzoporphyrin derivative monoacid ring A (BPD-MA, verteporfin, QLT PhotoTherapeutics, Inc., Vancouver, Canada) for one hour at 37° C. under light-protected conditions. The culture medium used for experiments was identical to that used for the passage of the cells except that FCS was used at a concentration of 5%. Experiments were conducted either in 6-well culture plates at 5×10^6 cells in a volume of 4 ml per well or in 96-well microtiter plates at 1×10^5 cells per well at 0.2 ml per well. Cells were irradiated with light of a wavelength of 690 nm delivered at 65-73 mW/sec from light emitting diodes (LED) to achieve a total light dose of 5 J/cm^2. Cells were returned to the incubator until required for analysis.
(§2) FasL and TRAIL as used were recombinant preparations. FasL was obtained from Upstate Biotechnology (Lake Placid NY) and corresponded to amino acids 103-281 of the soluble domain of human FasL. TRAIL was obtained from BIOMOL Research Laboratories (Plymouth Meeting, Pa.) and corresponded to residues 114-281 of the soluble domain of human TRAIL. FasL and TRAIL were usually added immediately following the treatment of cells with PDT, although in one series of experiments these factors were added at 1, 2 or 3 hours post-irradiation.
Whole cell lysates were prepared by washing 1×10^7 cells per sample twice with ice-cold PBS. Cells were disrupted with 1 mL of lysis buffer [1% Nonidet P-40 detergent (NP-40), 20 mM Tris-HCl, pH 8.0, 137 mM NaCl, 10% glycerol, 1 mM phenylmethylsulfonyl fluoride (PMSF) aprotinln (0.15 U/mL) and 1 mM sodium orthovanadate] for 20 minutes on ice. Lysates were centrifuged for 10 minutes at 15,800×g at 4° C.
To evaluate the activation state of different caspases and the status of other cellular proteins, whole cell lysates were separated by sodium dodecyl sulphate polyacrylamide gel electrophoresis (SDS-PAGE). Specifically, detergent-soluble proteins were separated by SDS-PAGE within 10% gels under reducing conditions as described by Laemmli et al. (“Cleavage of Structural Proteins During the Assembly of the Head of Bacteriophage T4”, Nature, 227, 680-685 (1970)). The proteins were transferred to nitrocellulose membranes at 100 volts for one hour. […]

Jurkat T cells = experiment: DNA fragmentation (sub-diploid DNA) by PI staining and flow cytometry; conditions: for cells exhibiting DNA fragmentation (sub-diploid DNA levels): 690 nm light 5 J/cm^2, analysis 24 hours later
Experimental: as §1, §2
The proportion of cells containing sub-diploid levels of DNA 24 hours following treatment was determined using a propidium iodide (“PI”) fluorescence analysis procedure as described by Telford et al. (“Rapid Quantitation of Apoptosis in Pure and Heterogeneous Cell Populations Using Flow Cytometry” J. Immunol Methods 172:1-6 (1994)) or by Darzynkieicz et al. (“Features of Apoptotic Cells Measured by Flow Cytometry”, Cytometry, 13:795-808 (1992)).
Twenty four hours following PDT, 5×10^5 cells were washed twice with ice-cold PBS and then permeablized and fixed in 80% ethanol at 4° C. for one hour. The cells were again washed in ice-cold PBS and stained with PI (50 μg/mL) in PBS with simultaneous deoxyribose nuclease-free ribonuclease A (5 U/mL) treatment. These samples were analyzed by flow cytometry. The percentage of apoptotic cells was calculated using single color analysis for PI fluorescence with a Coulter XL flow cytometer (Coulter Electronics, Inc., Hialeah, Fla.). […] The degree of separation between the apoptotic population and the G0/G1 peak is readily apparent and the percentage of apoptotic cells is determined from the subsequent histogram.

cytochrome c = experiment: Cytochrome c in cytosolic extracts of Jurkat cells (immunoblot)
Experimental: as §1, §2
To obtain cytosolic extracts, cells were treated with 0.6 ml of ice-cold buffer [250 mM sucrose, 20 mM Hepes pH 7.4, 10 mM KCl, 1.5 mM MgCl2, 1 mM EGTA, 1 mM EDTA, 1 mM dithiothreitol, 1 mM PMSF and aprotinin (10 μg/ml)]. Cells were disrupted by 20 strokes with the B pestle of a Kontes™ dounce homogenizer. Supernatant collected following centrifugation at 10000×g was further centrifuged at 100000×g for 1 h at 4° C. in a Beckman Optima™ ultracentrifuge using a TL-100 rotor. (Granville et al., “Rapid cytochrome c release, activation of caspases 3, 6, 7 and 8 followed by Bap31 cleavage in HeLa cells treated with photodynamic therapy”, FEBS Lett. 437, 5-10 (1998)).
To evaluate the activation state of different caspases and the status of other cellular proteins, whole cell lysates were separated by sodium dodecyl sulphate polyacrylamide gel electrophoresis (SDS-PAGE). […]

[2] = FasL 7.5 ng/ml or TRAIL 20 ng/ml, 3 hours

Substance | caspase processing and PARP degradation compared with PDT or the factor alone ([1]; FasL 7.5 ng/ml or TRAIL 20 ng/ml combined with verteporfin PDT, 3 hours) | processing of caspases and PARP by the factor alone [1, 2] | increase in proportion of cells with sub-diploid DNA versus light-treated control cells (Jurkat T cells; TRAIL 20 ng/ml added after PDT with verteporfin 2 ng/ml, 5 J/cm^2, 24 hours) | increase in the number of cells displaying DNA fragmentation (Jurkat T cells; TRAIL 20 ng/ml by itself, 24 hours (FIG. 2)) | proportion of cells with sub-diploid DNA compared with PDT alone (Jurkat T cells; TRAIL 20 ng/ml or FasL 7.5 ng/ml added after PDT with verteporfin 0.5 and 1 ng/ml) | nature of the combined effect on DNA fragmentation (Jurkat T cells; TRAIL 20 ng/ml with PDT (verteporfin 2 ng/ml) versus each alone) | cells with induced DNA fragmentation (Jurkat T cells; TRAIL 1000 ng/ml, within 24 hours) | DNA fragmentation induced by the factor without PDT across addition times (Jurkat T cells; added at 5 minutes, 1, 2 or 3 hours, FasL 7.5 ng/ml, TRAIL 20 ng/ml, individually or in combination) | change of the combined effect with PDT on DNA fragmentation (Jurkat T cells; factor added at 3 hours post-PDT (verteporfin 2 ng/ml)) | capacity to accentuate PDT-mediated apoptosis (DNA fragmentation) (Jurkat T cells; factor added up to 3 hours after PDT (verteporfin 2 ng/ml), FasL 7.5 ng/ml, TRAIL 20 ng/ml) | cytochrome c in cytosolic extracts, factor alone (cytochrome c; [2]) | cytochrome c in cytosolic extracts, factor with PDT (cytochrome c; PDT in combination with TRAIL 20 ng/ml or FasL 7.5 ng/ml, 3 hours) | caspase processing after PDT alone ([1]; increasing verteporfin concentrations, 5 J/cm^2, 3 hours after irradiation) | caspase-3, -8, -9 and PARP processing after PDT alone ([1]; verteporfin 5 ng/ml, 5 J/cm^2, 3 hours (FIG. 8)) | cells exhibiting DNA fragmentation relative to cells treated with light alone (Jurkat T cells; verteporfin 2 ng/ml, light 5 J/cm^2, 24 hours) | cells exhibiting DNA fragmentation (sub-diploid DNA levels) (Jurkat T cells; verteporfin 5 ng/ml) | cells exhibiting DNA fragmentation (sub-diploid DNA levels) (Jurkat T cells; verteporfin 15 ng/ml) | cytochrome c in cytosolic fractions, immediately versus three hours after photoirradiation (cytochrome c; verteporfin and light 5 J/cm^2) | cytochrome c within the cytosolic fraction (cytochrome c; verteporfin and light 5 J/cm^2, extracts prepared immediately afterward)
TRAIL: recombinant, residues 114-281 of the soluble domain of human TRAIL (BIOMOL) | more extensive caspase processing and PARP degradation; also recorded: a higher degree of processing | minor processing; also recorded: little detectable processing | approximately eight-fold | two-fold | a greater proportion of cells contained a sub-diploid level of DNA | greater than additive | approximately 60% | a comparable level of DNA fragmentation | a modest decline | still demonstrable | background levels of cytochrome c | readily detectable amounts of cytochrome c |  |  |  |  |  |  | 
benzoporphyrin derivative monoacid ring A [verteporfin, reference compound] |  |  |  |  |  |  |  |  |  |  |  |  | evidence of caspase-3, -6, -8 and -9 processing; also recorded: processing of caspases-3, -6, -8 and -9 | a moderate degree | Five times | a minor proportion of cells | the vast majority of cells | comparable levels of cytochrome c | immediate appearance of cytochrome c
